Measured values from paper PMC4279137 (Pharmaceutics, 2014).
Where two headings read alike, the source gives them in different places. One block for each compound: values may come before it.

How the values were obtained:
[1] = tested on: SLCO2B1; experiment: Induction assay, mRNA by real-time RT-PCR in LS180 cells: SLCO2B1; type: cell-based, human; settings: four days, at higher concentrations
Method: (§1) The human colon adenocarcinoma cell line LS180 (available at ATCC, Manassas, VA, USA) was used for induction experiments as a surrogate for the intestine being a major site of drug interactions and being an ideal model for investigating PXR and AhR mediated induction. Cells were cultured as described previously. For the induction experiments, LS180 cells were seeded in 75 cm^2 culturing flasks and incubated for three days. […] Rifampicin (20 µM) served as a positive control and culture medium with 0.02% DMSO as a negative control. For induction of CYP1A1 and CYP1A2, 5 nM TCDD was used as a positive control. All incubation solutions were adjusted to 0.02% DMSO. […]
(§2) RNA was isolated using the RNeasy Mini-Kit and cDNA was synthesised with the RevertAid™ H Minus First Strand cDNA Synthesis Kit according to the manufacturer’s instructions. mRNA expression was quantified by real-time RT-PCR with the LightCycler® 480 (Roche Applied Science, Mannheim, Germany) as described previously. […] Data were evaluated by calibrator-normalised relative quantification with efficiency correction using the LightCycler® 480 software version 1.5 (Roche Applied Science, Mannheim, Germany). The software calculated the relative amount of the target gene and the reference gene (G6PDH) based on the crossing points. Results were expressed as the target/reference ratio divided by the target/reference ratio of the calibrator. […]

[2] = molecular target: CYP3A4 (Homo sapiens, UniProt P08684); experiment: in vitro
CYP3A4 (Homo sapiens, UniProt P08684), sequence (P08684 whole entry): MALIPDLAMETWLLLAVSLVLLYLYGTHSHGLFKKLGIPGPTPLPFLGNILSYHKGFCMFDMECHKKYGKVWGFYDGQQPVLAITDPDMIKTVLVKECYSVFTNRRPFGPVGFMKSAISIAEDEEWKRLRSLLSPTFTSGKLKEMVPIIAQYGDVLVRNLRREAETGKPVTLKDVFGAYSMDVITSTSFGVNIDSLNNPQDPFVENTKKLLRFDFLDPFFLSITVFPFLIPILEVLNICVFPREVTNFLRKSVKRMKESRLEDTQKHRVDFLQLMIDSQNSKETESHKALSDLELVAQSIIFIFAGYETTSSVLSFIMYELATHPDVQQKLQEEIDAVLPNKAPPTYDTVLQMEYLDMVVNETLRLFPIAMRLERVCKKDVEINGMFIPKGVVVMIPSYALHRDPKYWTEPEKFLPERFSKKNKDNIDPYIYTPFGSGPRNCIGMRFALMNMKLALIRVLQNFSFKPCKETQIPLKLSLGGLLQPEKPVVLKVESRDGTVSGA
Method: (§3) Inhibition studies were performed with the CYP2D6/AMMC, the CYP2C19/CEC, and the CYP3A4/BFC High Throughput Inhibitor Screening Kit (Becton Dickinson Biosciences, Heidelberg, Germany) according to the manufacturer’s instructions. The Screening Kits contain the respective recombinant CYP and fluorogenic substrates, which are blocked dyes yielding minimal fluorescence signal until cleaved by the enzyme. […] Eight concentrations (9 nM–20 µM) were tested and the experiment was conducted in triplicate.

[3] = molecular target: T1, CYP2D6 (Homo sapiens, UniProt P10635); experiment: CYP2D6/AMMC High Throughput Inhibitor Screening Kit; type: biochemical; settings: tested up to 20 µM
T1 construct: purchased Becton Dickinson Biosciences, Heidelberg, Germany
T1 sequence (P10635 whole entry): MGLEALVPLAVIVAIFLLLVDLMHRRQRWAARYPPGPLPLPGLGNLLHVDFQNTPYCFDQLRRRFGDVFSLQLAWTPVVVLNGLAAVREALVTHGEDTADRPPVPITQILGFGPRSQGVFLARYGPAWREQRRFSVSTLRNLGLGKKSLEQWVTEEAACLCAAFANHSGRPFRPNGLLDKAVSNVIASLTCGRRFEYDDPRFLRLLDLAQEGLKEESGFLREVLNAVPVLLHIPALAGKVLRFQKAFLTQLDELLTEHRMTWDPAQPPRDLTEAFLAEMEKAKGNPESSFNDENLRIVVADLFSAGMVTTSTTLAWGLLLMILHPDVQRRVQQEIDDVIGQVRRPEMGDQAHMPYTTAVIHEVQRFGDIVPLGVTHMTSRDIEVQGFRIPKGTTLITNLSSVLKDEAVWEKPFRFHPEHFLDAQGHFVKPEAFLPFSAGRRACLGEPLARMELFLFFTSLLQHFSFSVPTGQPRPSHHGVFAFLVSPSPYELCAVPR
Method: as §3

[4] = tested on: LS180 cells; experiment: Growth inhibition assay (crystal violet staining) in LS180 cells; type: cell-based; settings: Homo sapiens, 48 h, read-out: IC20 for proliferation inhibition
Method: The human colon adenocarcinoma cell line LS180 (available at ATCC, Manassas, VA, USA) was used for induction experiments as a surrogate for the intestine being a major site of drug interactions and being an ideal model for investigating pregnane X receptor (PXR) and aryl hydrocarbon receptor (AhR) mediated induction. Cells were cultured under standard cell culture conditions with Dulbecco’s Modified Eagle’s Medium (DMEM) supplemented with 10% fetal calf serum, 2 mM glutamine, 100 U/mL penicillin, 100 µg/mL streptomycin sulphate, and 0.1 mM nonessential amino acids.
Growth inhibition assays in LS180 cells were conducted to determine suitable maximum concentrations for the induction assay without profound antiproliferative effects. Proliferation was quantified by crystal violet staining as described previously. […] Absorption was measured at 555 nm excitation. Proliferation was expressed as proliferation index, which was calculated as the absorption intensity of the test well in percentage points relative to zero proliferation (absorption of wells containing only medium set to 0%) and native proliferation (absorption intensity of untreated control cells set to 100%). […] Concentration-response curves and IC20 values were calculated by GraphPad Prism version 5.02 (GraphPad Software Inc., La Jolla, CA, USA) according to a sigmoid Emax model.

[5] = molecular target: T2, CYP2C19 (Homo sapiens, UniProt P33261); experiment: CYP2C19/CEC High Throughput Inhibitor Screening Kit; type: biochemical
T2 construct: purchased Becton Dickinson Biosciences, Heidelberg, Germany
T2 sequence (P33261 whole entry): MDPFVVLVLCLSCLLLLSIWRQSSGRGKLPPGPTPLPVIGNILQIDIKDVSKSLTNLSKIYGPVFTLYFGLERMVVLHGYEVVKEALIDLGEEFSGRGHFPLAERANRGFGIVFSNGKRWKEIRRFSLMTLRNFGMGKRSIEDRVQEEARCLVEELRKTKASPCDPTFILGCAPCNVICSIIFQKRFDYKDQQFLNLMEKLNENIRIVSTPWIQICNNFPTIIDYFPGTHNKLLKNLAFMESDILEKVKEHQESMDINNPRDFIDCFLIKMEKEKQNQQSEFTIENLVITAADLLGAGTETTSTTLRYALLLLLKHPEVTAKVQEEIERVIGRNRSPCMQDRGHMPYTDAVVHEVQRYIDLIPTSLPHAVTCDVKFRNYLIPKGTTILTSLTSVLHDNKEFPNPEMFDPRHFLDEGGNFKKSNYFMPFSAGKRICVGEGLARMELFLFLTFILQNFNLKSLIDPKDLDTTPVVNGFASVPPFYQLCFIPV
Method: as §3

[6] = tested on: CYP2C19; experiment: Induction assay, mRNA by real-time RT-PCR in LS180 cells: CYP2C19; type: cell-based, human; settings: 0.1-5 µM, four days
Method: as §1, §2

[7] = tested on: P-gp; experiment: Western blot analysis of P-gp expression in LS180 cells; type: cell-based, human; settings: four days
Method: The human colon adenocarcinoma cell line LS180 (available at ATCC, Manassas, VA, USA) was used for induction experiments as a surrogate for the intestine being a major site of drug interactions and being an ideal model for investigating PXR and AhR mediated induction. Cells were cultured as described previously. For the induction experiments, LS180 cells were seeded in 75 cm^2 culturing flasks and incubated for three days. […] Rifampicin (20 µM) served as a positive control and culture medium with 0.02% DMSO as a negative control. For induction of CYP1A1 and CYP1A2, 5 nM TCDD was used as a positive control. All incubation solutions were adjusted to 0.02% DMSO. After harvesting, cells were splitted for RNA and protein extraction.

[8] = Growth inhibition assay in MDCKII-BCRP cells; type: cell-based, canine; settings: dog
[9] = tested on: ABCG2; experiment: Induction assay, mRNA by real-time RT-PCR in LS180 cells: ABCG2; type: cell-based, human; settings: 0.1-5 µM, four days
Method: as §1, §2

[10] = tested on: SLCO1B1; experiment: Induction assay, mRNA by real-time RT-PCR in LS180 cells: SLCO1B1; type: cell-based, human; settings: four days, at higher concentrations
Method: as §1, §2

[11] = tested on: ABCC2; experiment: Induction assay, mRNA by real-time RT-PCR in LS180 cells: ABCC2; type: cell-based, human; settings: four days, at higher concentrations
Method: as §1, §2

[12] = molecular target: T3, OATP1B1 (Homo sapiens, UniProt Q9Y6L6); experiment: OATP inhibition assay (8-FcA flow cytometry uptake assay) in HEK-OATP1B1 cells; type: cell-based; settings: 8-fluorescein-cAMP uptake
T3 construct: expressed in transfected cells; host or cells: HEK293 (HEK-OATP1B1)
T3 sequence (Q9Y6L6 whole entry): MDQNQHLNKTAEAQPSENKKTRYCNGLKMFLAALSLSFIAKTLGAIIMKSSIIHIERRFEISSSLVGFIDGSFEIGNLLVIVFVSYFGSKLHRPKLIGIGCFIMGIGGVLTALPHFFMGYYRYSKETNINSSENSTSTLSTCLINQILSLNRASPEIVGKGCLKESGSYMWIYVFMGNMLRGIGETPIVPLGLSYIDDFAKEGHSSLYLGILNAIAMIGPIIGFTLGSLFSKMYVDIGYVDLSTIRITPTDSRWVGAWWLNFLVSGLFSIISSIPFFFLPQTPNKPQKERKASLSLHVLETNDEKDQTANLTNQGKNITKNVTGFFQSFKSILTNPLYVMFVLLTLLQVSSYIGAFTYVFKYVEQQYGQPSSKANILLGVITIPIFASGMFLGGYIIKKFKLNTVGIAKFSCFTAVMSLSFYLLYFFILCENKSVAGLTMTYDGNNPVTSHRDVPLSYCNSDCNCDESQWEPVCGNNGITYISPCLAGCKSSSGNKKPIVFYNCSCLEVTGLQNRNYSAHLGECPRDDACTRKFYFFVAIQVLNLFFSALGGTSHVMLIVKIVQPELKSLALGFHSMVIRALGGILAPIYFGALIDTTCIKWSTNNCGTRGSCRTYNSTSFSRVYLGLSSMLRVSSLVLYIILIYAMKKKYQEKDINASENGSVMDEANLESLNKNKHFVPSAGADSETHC
Method: (§4) For assessing human organic antion transporting polypeptides (OATPs = solute carriers of organic anions (SLCOs)) inhibition, the human embryonic kidney cell line HEK293 stably transfected with OATP1B1 (HEK-OATP1B1), OATP1B3 (HEK-OATP1B3), or the empty control vector (HEK293-VC G418) were used. Cells were cultured under standard cell culture conditions with DMEM supplemented with 10% FCS, 2 mM glutamine, 100 U/mL penicillin, 100 µg/mL streptomycin sulphate, and 800 µg/mL G418. Cells were kindly provided by Dr. D. Keppler (German Cancer Research Centre, Heidelberg, Germany).
(§5) Inhibition of OATP1B1 and OATP1B3 was analysed by flow cytometric uptake of the fluorescent 8-FcA as described previously using HEK-OATP1B1, OATP1B3, and HEK293-VC G418 (as a control). […] Subsequently, cells were washed once with 1 mL ice-cold incubation medium and resuspended in 500 µL incubation medium and kept on ice until flow cytometry. Intracellular fluorescence was analysed in a Becton Dickinson LSRII flow cytometer (Becton Dickinson, Heidelberg, Germany) with a solid state coherent sapphire blue laser and a 530 bandpass filter for 8-FcA.
(§6) In each sample 30,000 cells were counted. Cell debris was eliminated by gating the viable cells in the forward versus side scatter. […] Each experiment was performed at least in triplicate.

[13] = tested on: UGT2B7; experiment: Induction assay, mRNA by real-time RT-PCR in LS180 cells: UGT2B7; type: cell-based, human; settings: four days, at higher concentrations
Method: as §1, §2

[14] = molecular target: T4, AhR (Homo sapiens, UniProt P35869); experiment: AhR reporter gene assay in AZ-AhR cells; type: cell-based; settings: 24 h, luciferase reporter, read-out: EC50 activation of AhR activity
T4 construct: endogenous in cells; host or cells: AZ-AhR (HepG2)
T4 sequence (P35869 11-848): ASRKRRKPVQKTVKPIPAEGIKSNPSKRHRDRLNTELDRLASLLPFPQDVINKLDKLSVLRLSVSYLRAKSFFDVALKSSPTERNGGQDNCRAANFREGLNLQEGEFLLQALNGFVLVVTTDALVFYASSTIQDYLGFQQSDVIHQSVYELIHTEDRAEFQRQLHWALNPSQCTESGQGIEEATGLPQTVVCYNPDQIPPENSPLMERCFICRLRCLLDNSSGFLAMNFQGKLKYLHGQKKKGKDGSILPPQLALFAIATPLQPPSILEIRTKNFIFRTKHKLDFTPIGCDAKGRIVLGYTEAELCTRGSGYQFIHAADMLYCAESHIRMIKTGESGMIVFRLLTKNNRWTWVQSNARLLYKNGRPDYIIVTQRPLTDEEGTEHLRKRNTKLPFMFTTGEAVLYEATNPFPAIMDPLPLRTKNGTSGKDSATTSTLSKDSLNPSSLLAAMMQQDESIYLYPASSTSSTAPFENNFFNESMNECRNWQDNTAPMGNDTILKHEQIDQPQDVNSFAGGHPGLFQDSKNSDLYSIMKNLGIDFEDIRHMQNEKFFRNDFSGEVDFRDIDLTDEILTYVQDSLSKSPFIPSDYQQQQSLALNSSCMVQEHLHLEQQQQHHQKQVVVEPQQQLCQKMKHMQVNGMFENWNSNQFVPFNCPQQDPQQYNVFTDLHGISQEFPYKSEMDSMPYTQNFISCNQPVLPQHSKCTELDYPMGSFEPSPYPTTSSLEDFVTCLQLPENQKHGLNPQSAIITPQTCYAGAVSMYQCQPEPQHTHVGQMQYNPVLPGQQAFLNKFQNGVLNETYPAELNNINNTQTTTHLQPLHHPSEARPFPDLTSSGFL
Method: Human hepatoma HepG2 cells stably transfected with a construct containing several AhR binding sites upstream of a luciferase reporter gene were used for the AhR reporter gene assays as described previously.
In total, 60,000 AZ-AhR cells were seeded into each well of 96-well plates with clear bottom and clear lid for luminometry. […] The assay was performed with the Steady-Glo™ Luciferase Assay System according to the manufacturer’s instructions. Drug-induced increases of AhR receptor activity were normalised to activity of non-drug treated controls set to 1 (=100%).

[15] = molecular target: T5, OATP1B3 (Homo sapiens, UniProt Q9NPD5); experiment: OATP inhibition assay (8-FcA flow cytometry uptake assay) in HEK-OATP1B3 cells; type: cell-based; settings: 8-fluorescein-cAMP uptake
T5 construct: expressed in transfected cells; host or cells: HEK293 (HEK-OATP1B3)
T5 sequence (Q9NPD5 whole entry): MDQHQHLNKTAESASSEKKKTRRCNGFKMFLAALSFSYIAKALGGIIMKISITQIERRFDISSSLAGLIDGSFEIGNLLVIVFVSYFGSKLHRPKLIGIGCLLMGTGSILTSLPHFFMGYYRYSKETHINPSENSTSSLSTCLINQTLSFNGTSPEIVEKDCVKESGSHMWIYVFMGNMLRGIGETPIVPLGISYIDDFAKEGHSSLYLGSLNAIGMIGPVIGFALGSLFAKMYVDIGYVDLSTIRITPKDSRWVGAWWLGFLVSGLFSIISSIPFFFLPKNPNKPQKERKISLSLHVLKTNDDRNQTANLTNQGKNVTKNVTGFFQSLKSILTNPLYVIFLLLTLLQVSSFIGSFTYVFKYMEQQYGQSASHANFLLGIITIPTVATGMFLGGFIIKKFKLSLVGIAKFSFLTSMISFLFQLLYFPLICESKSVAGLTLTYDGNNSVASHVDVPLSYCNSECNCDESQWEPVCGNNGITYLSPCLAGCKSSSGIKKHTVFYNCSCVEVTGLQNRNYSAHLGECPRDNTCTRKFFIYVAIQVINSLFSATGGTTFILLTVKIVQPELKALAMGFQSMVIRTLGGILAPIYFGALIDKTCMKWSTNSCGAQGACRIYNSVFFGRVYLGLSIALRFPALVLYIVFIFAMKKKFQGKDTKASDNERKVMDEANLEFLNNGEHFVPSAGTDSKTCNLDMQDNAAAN
Method: as §4, §5, §6

[16] = tested on: MDCKII; experiment: Growth inhibition assay in MDCKII cells; type: cell-based, canine; settings: Canis lupus familiaris, MDCK-II; MDCKII parental cells
[17] = Growth inhibition assay in MDCKII-MDR1 cells; type: cell-based, canine; settings: dog
[18] = tested on: CYP3A4; experiment: Induction assay, mRNA by real-time RT-PCR in LS180 cells: CYP3A4; type: cell-based, human; settings: 0.1-5 µM, four days
Method: as §1, §2

[19] = tested on: ABCC3; experiment: Induction assay, mRNA by real-time RT-PCR in LS180 cells: ABCC3; type: cell-based, human; settings: 0.1-5 µM, four days
Method: as §1, §2

[20] = tested on: ABCC1; experiment: Induction assay, mRNA by real-time RT-PCR in LS180 cells: ABCC1; type: cell-based, human; settings: 0.1-5 µM, four days
Method: as §1, §2

[21] = Stock solution in DMSO (highest possible solution); type: physicochemical
[22] = tested on: CYP1A2; experiment: Induction assay, mRNA by real-time RT-PCR in LS180 cells: CYP1A2; type: cell-based, human
Method: as §1, §2

[23] = tested on: CYP1A1; experiment: Induction assay, mRNA by real-time RT-PCR in LS180 cells: CYP1A1; type: cell-based, human
Method: as §1, §2

[24] = tested on: ABCB1; experiment: Induction assay, mRNA by real-time RT-PCR in LS180 cells: ABCB1; type: cell-based, human; settings: four days, at higher concentrations
Method: as §1, §2

[25] = tested on: NR1I2; experiment: Induction assay, mRNA by real-time RT-PCR in LS180 cells: NR1I2; type: cell-based, human; settings: four days, at higher concentrations
Method: as §1, §2

[26] = tested on: UGT1A3; experiment: Induction assay, mRNA by real-time RT-PCR in LS180 cells: UGT1A3; type: cell-based, human; settings: four days, at higher concentrations
Method: as §1, §2

[27] = molecular target: T6, BCRP (Homo sapiens, UniProt Q9UNQ0); design: method as in PMID 20222053; settings: MDCKII-BCRP cells; read-out: IC50 BCRP inhibition, control compound; cited from earlier work
T6 construct: expressed in transfected cells; host or cells: MDCKII-BCRP (Madin-Darby canine kidney cells)
T6 sequence (Q9UNQ0 whole entry): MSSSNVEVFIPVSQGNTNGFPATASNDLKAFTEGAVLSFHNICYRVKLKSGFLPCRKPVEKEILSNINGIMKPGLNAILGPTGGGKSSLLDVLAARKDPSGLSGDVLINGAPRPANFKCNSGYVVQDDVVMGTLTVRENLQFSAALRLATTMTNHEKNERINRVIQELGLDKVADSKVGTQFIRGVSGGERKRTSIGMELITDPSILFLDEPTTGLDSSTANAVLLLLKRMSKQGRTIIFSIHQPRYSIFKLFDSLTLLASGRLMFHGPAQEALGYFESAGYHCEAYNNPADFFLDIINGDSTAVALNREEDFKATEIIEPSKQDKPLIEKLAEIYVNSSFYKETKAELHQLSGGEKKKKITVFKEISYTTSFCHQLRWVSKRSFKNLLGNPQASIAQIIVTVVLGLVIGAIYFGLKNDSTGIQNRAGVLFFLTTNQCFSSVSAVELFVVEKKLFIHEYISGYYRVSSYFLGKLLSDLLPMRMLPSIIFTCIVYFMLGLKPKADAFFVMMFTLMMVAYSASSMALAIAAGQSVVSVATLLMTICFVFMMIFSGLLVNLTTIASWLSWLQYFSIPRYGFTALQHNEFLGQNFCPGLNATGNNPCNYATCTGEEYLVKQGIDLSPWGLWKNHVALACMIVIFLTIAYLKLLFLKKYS

[28] = molecular target: T3, OATP1B1; design: method as in PMID 23219525; settings: HEK-OATP1B1 cells; read-out: IC50 OATP1B1 inhibition, control compound; cited from earlier work
[29] = molecular target: T5, OATP1B3; design: method as in PMID 23219525; settings: HEK-OATP1B3 cells; read-out: IC50 OATP1B3 inhibition, control compound; cited from earlier work

- inhibition at 20 µM [2]: ~30%
- CYP2D6 inhibition [3]: not inhibited at all
- inhibition at 20 µM ([5]; human, recombinant CYP2C19, probe CEC, at 20 µM): ~50%
- mRNA expression of CYP2C19 [6]: no influence
- IC50 [12]: 76.5 ± 28.9 µM
- EC50 [14]: 0.609 ± 0.282 µM
- IC50 [15]: > 100 µM
- mRNA expression of CYP3A4 [18]: no influence
- stock solution, highest possible solution [21]: 10 mM
- mRNA expression of CYP1A2 ([22]; 0.1-5 µM, four days): induced
- induction of CYP1A2 (mRNA) ([22]; Figure 3): approximately 10 fold
- mRNA expression of CYP1A1 ([23]; 0.1-5 µM, four days): induced
- induction of CYP1A1 (mRNA) ([23]; Figure 3): approximately 10 fold
SMILES: CN1CCN(c2ccc3nc(-c4c(N)c5c(F)cccc5[nH]c4=O)[nH]c3c2)CC1 [Dovitinib]
- mRNA expression of SLCO2B1 [1]: reduced
- IC20 [4]: 4.9 ± 2.5 µM
- P-gp protein expression (western blot) ([7]; at 0.1 and 0.5 µM): small increase in P-gp expression
- P-gp protein expression (western blot) ([7]; at higher dovitinib concentrations): suppression of P-gp protein expression
- IC50 at 48 h [8]: 21.4 ± 3.6 µM
- mRNA expression of ABCG2 [9]: induced
- mRNA expression of SLCO1B1 [10]: reduced
- mRNA expression of ABCC2 [11]: reduced
- mRNA expression of UGT2B7 [13]: reduced
- IC50 [16]: 20 ± 2.9 µM
- IC50 at 48 h [17]: 18.3 ± 4.1 µM
- mRNA expression of ABCC3 [19]: induced
- mRNA expression of ABCC1 [20]: no influence
- mRNA expression of ABCB1 [24]: reduced
- mRNA expression of NR1I2 [25]: reduced
- mRNA expression of UGT1A3 [26]: reduced

SMILES: COc1ccc2c3c([nH]c2c1)[C@H](C=C(C)C)N1C(=O)[C@@H]2CCCN2C(=O)[C@@H]1C3 [Fumitremorgin C]
- IC50 [27]: 0.7 ± 0.3 µM

SMILES: CO[C@H]1/C=C/O[C@@]2(C)Oc3c(C)c(O)c4c(O)c(c(/C=N/N5CCN(C)CC5)c(O)c4c3C2=O)NC(=O)/C(C)=C\C=C\[C@H](C)[C@H](O)[C@@H](C)[C@@H](O)[C@@H](C)[C@H](OC(C)=O)[C@@H]1C [Rifampicin]
- IC50 [28]: 2.4 ± 0.9 µM
- IC50 [29]: 2.1 ± 1 µM

- IC50 ([5]; control compound, read-out: IC50 CYP2C19 inhibition): 0.8 ± 0.2 µM
SMILES: COc1ccc2[nH]c([S+]([O-])Cc3ncc(C)c(OC)c3C)nc2c1 (stereo not drawn) [omeprazole, Omeprazole]
